Data reported in ChEMBL document CHEMBL1142948, “Somatostatin receptor-binding peptides suitable for tumor radiotherapy with Re-188 or Re-186. Chemistry and initial biological studies” (J Med Chem, 2007).

Each molecule was assayed against Somatostatin receptor (assay: Displacement of [125I-Tyr-11]-SRIF from SSTR of human NCI-H69 cell membranes). Settings: not given.

IC50 [nM]	SMILES
1.6	C[C@@H](O)[C@@H]1NC(=O)[C@H](CCCCN)NC(=O)[C@@H](Cc2c[nH]c3ccccc23)NC(=O)[C@H](Cc2ccc(O)cc2)NC(=O)[C@H](CCSCC(=O)NC[C@H](N)C(=O)N[C@@H](CO)C(=O)N[C@@H](CS)C(=O)N[C@H](CO)[C@@H](C)O)N(C)C(=O)[C@H](Cc2ccccc2)NC1=O
1.6	C[C@@H](O)[C@H](NC(=O)CSCC[C@H]1C(=O)N[C@@H](Cc2ccc(O)cc2)C(=O)N[C@H](Cc2c[nH]c3ccccc23)C(=O)N[C@@H](CCCCN)C(=O)N[C@@H]([C@@H](C)O)C(=O)N[C@@H](Cc2ccccc2)C(=O)N1C)C(=O)NCC(=O)NCC(=O)N[C@@H](CS)C(N)=O
0.35	C[C@@H](O)[C@@H]1NC(=O)[C@H](CCCCN)NC(=O)[C@@H](Cc2c[nH]c3ccccc23)NC(=O)[C@H](Cc2ccc(O)cc2)NC(=O)[C@H](CCSCC(=O)NC[C@H](N)C(=O)N[C@@H](CCCCN)C(=O)N[C@@H](CS)C(=O)N[C@H](CO)[C@@H](C)O)N(C)C(=O)[C@H](Cc2ccccc2)NC1=O
0.5	C[C@@H](O)[C@@H]1NC(=O)[C@H](CCCCN)NC(=O)[C@@H](Cc2c[nH]c3ccccc23)NC(=O)[C@H](Cc2ccc(O)cc2)NC(=O)[C@H](CCSCC(=O)NC[C@H](N)C(=O)N[C@@H](Cc2ccc(N)cc2)C(=O)N[C@@H](CS)C(=O)N[C@H](CO)[C@@H](C)O)N(C)C(=O)[C@H](Cc2ccccc2)NC1=O
0.64	C[C@@H](O)[C@H](NC(=O)[C@H](CS)NC(=O)[C@H](Cc1ccc(N)cc1)NC(=O)[C@@H](N)CNC(=O)CSCC[C@H]1C(=O)N[C@@H](Cc2ccc(O)cc2)C(=O)N[C@H](Cc2c[nH]c3ccccc23)C(=O)N[C@@H](CCCCN)C(=O)N[C@@H]([C@@H](C)O)C(=O)N[C@@H](Cc2ccccc2)C(=O)N1C)C(=O)O
0.2	C[C@@H](O)[C@H](NC(=O)[C@H](CS)NC(=O)[C@H](Cc1ccc(N)cc1)NC(=O)[C@@H](N)CNC(=O)CSCC[C@H]1C(=O)N[C@@H](Cc2ccc(O)cc2)C(=O)N[C@H](Cc2c[nH]c3ccccc23)C(=O)N[C@@H](CCCCN)C(=O)N[C@@H]([C@@H](C)O)C(=O)N[C@@H](Cc2ccccc2)C(=O)N1C)C(=O)N[C@@H](CO)C(=O)O

What follows are molecules tested against Somatostatin receptor (assay: Displacement of [125I]SRIF-14 from SSTR of rat AR42J cell membranes). Settings: ar-42j.
Set-up: species or system Membrane

IC50 [nM]	SMILES
0.7	CC(C)[C@@H]1NC(=O)[C@H](CCCCN)NC(=O)[C@H](Cc2c[nH]c3ccccc23)NC(=O)[C@H](Cc2ccc(O)cc2)NC(=O)[C@@H](CCS)N(C)C(=O)[C@H](Cc2ccccc2)NC1=O
0.4	C[C@@H](O)[C@@H]1NC(=O)[C@H](CCCCN)NC(=O)[C@H](Cc2c[nH]c3ccccc23)NC(=O)[C@H](Cc2ccc(O)cc2)NC(=O)[C@@H](Cc2ccccc2)N(C)C(=O)[C@H](CCS)NC1=O
23.7	C[C@@H](O)[C@@H]1NC(=O)[C@H](CCCCN)NC(=O)[C@H](Cc2c[nH]c3ccccc23)NC(=O)[C@H](Cc2ccc(O)cc2)NC(=O)[C@@H](CCS)NC(=O)[C@H](Cc2ccccc2)N(C)C1=O
1.5	CC(C)[C@@H]1NC(=O)[C@H](CCCCN)NC(=O)[C@H](Cc2c[nH]c3ccccc23)NC(=O)[C@H](Cc2ccc(O)cc2)NC(=O)[C@@H](Cc2ccccc2)N(C)C(=O)[C@H](CCS)NC1=O
0.1	C[C@@H](O)[C@@H]1NC(=O)[C@H](CCCCN)NC(=O)[C@H](Cc2c[nH]c3ccccc23)NC(=O)[C@H](Cc2ccc(O)cc2)NC(=O)[C@@H](CCS)N(C)C(=O)[C@H](Cc2ccccc2)NC1=O
